Consider two compounds from publication PMC10623575, “Discovery of Potent and Selective CB2 Agonists Utilizing a Function-Based Computational Screening Protocol” (ACS Chemical Neuroscience, 2023).

Usually IC50 stands for the point on the concentration scale where inhibition reaches its midpoint. Broadly, the Ki is a dissociation constant, usually derived from enzyme kinetics or from competition with a known ligand.

Molecules are shown by their SMILES.

For one assay, the target named is CB1 receptor (Homo sapiens, UniProt P21554). The experiment in a line: Calcium mobilization assay, antagonist mode (CP55940 challenge), CHO expressing CB1. In kind it is cell-based. The method, then: (§1) Chinese hamster ovarian (CHO) cells collected from the American Type Culture Collection were maintained in Ham’s F-12K (Kaighn’s) supplemented with 100 mg/L streptomycin, 100 mg/L penicillin, and 10% fetal bovine serum (FBS) in a humidified atmosphere of 5% CO2 at 37 °C. CHO cells were co-transfected with plasmids encoding CB1 or CB2 and Gα16 by electroporation. To establish stable cell lines, transfected cells were seeded on 10 cm dishes with 40 μg/mL blasticidin and 1 mg/mL G418 in culture medium after 24 h. The selection medium was substituted once every 3 days until colonies formed. A solitary colony was obtained, propagated, and assessed using a calcium mobilization assay to verify the function and expression of the transfected genes.
(§2) 3 × 10^4 cells/well were employed to seed cells onto 96-well plates, which were subsequently incubated throughout the night. Cells were then treated with 2 μM Fluo-4 AM in HBSS (0.3 mM Na2HPO4, 5.4 mM KCl, 4.2 mM NaHCO3, 0.4 mM KH2PO4, 0.5 mM MgCl2, 1.3 mM CaCl2, 137 mM NaCl, 0.6 mM MgSO4, 250 μM sulfinpyrazone, and 5.6 mM D-glucose, pH 7.4) for 45 min at 37 °C. […] Meanwhile, the change of intracellular calcium was measured at an excitation wavelength of 525 and 485 nm. For antagonist mode, the extra dye was washed out and 50 μL of HBSS with test compounds, DMSO (negative control), or AM630 (positive control) was introduced. […] The change of intracellular calcium was captured at an excitation wavelength of 525 and 485 nm. To be noticed, each experiment has been independently replicated three times, with three repetitions and eight gradients each time.
(§3) The collected data were processed with GraphPad Prism software (GraphPad). […] Means ± SEM were computed utilizing this software. The analyses were evaluated by the Student t test. When the p value is smaller than 0.05, the result is statistically significant.

Assay [1] concerns the target T1, CB2 receptor (Homo sapiens, UniProt P34972).
T1 construct: expressed in transfected cells
The experiment in a line: Calcium mobilization assay, antagonist mode (CP55940 challenge), CHO expressing CB2. In kind it is cell-based. The method, then: as §1, §2, §3
A general note: Calcium flux is commonly read through the fluorescence of an indicator in the cells.

Assay [2] has as its target T1, CB2 receptor. The note with it: representative ligands for active CB2 (Table S7); ref SI refs 3, 6, 7, 10, 11; read-out: Experimental Ki, Active CB2; cited from earlier work.

T1 sequence (P34972 whole entry): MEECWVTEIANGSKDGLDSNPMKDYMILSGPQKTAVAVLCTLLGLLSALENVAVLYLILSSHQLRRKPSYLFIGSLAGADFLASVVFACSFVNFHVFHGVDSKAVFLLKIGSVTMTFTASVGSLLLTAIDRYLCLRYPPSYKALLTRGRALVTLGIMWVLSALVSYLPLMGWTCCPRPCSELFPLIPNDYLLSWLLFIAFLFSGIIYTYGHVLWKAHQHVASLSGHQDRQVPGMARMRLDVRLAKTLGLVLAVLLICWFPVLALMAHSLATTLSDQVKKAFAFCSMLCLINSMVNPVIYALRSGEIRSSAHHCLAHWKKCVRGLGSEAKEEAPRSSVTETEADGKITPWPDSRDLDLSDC
Chain of CB1 receptor (P21554 whole entry): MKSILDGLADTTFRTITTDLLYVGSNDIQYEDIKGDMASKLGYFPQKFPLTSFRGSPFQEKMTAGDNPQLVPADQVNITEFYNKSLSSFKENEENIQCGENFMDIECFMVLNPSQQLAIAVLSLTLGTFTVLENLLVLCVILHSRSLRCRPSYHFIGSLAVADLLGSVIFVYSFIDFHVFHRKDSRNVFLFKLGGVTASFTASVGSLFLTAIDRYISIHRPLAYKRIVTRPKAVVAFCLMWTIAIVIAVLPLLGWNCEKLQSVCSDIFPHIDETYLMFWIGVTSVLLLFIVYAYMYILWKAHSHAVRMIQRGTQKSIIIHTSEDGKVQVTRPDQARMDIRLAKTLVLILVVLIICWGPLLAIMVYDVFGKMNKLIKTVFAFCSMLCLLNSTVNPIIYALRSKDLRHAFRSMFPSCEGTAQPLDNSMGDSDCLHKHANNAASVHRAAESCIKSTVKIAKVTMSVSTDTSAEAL

On to `CCCS(=O)(=O)Oc1cc(C=C2SC(=O)N(CC(C)C)C2=O)ccc1OC` [Compound 40, 5-((3-Isobutyl-2,4-dioxothiazolidin-5-ylidene)methyl)-2-methoxyphenyl Propane-1-sulfonate], for which the half-inhibitory concentration (IC50) on CB1 receptor is > 10000 nM; at CB2 receptor [1] (CB2 IC50, antagonist activity, CHO expressing CB2, three independent assays, mean ± SEM), 2.99 ± 1.42 µM; at CB2 receptor [1] (CB2 antagonist(μM) replicate 1, single independent experiment, replicate 1), 2.64 µM; at CB2 receptor [1] (CB2 antagonist(μM) replicate 2, single independent experiment, replicate 2), 5.6 µM; at CB2 receptor [1] (CB2 antagonist(μM) replicate3, single independent experiment, replicate 3) it was 0.728 µM. On CB2 receptor [1] (antagonist mode), the “SI, selectivity index for the CB2, SI = IC50(CB1)/IC50(CB2)” value is > 3.
Regarding `CCCCCn1cc(C(=O)C2C(C)(C)C2(C)C)c2ccccc21` [UR-144], on CB2 receptor [2], the Ki is 1.8 nM.
